We go through 58 compounds from patent publication US9693992B2 (MannKind Corporation, priority 2010, dated 2017).

The experiment concerns the target IRE-1α (Homo sapiens (Human), UniProt O75460). Put plainly: Cellular EC50: endogenous XBP-1 splicing in myeloma cells (MM.1s, DTT stress, RT-PCR). Type of experiment: cell-based. The settings on record: average cellular EC50, XBP-1 splicing in myeloma cells. The method, then: Human myeloma MM.1s cells are incubated with a compound for 1.25 hours before stressing the cells with 2 mM dithiothreitol (DTT). After an additional 45 minutes (2 hours total) with compound and DTT, the cells are harvested with TRIZOL® (a mono-phasic solution of phenol and guanidine isothiocyanate), and total RNA is prepared as directed by the manufacturer (Invitrogen). Human XBP-1 is amplified by RT-PCR with the following primers, which flank the 26 base unconventional intron excised by IRE-1α:
RT-PCR of unstressed (U) cells then generates the upper band. When cells are stressed (S) with the endoplasmic reticulum (ER) stressing agent DTT, IRE-1α is activated due to accumulating unfolded protein and the resulting RT-PCR product is 26 base pairs shorter.
Compounds which pass specificity assays are assayed for cellular EC50 using endogenous XBP-1 splicing in myeloma cells. XBP-1 is regulated through the excision of a 26 nucleotide intron from the XBP-1 mRNA by the highly specific endoribonuclease activity of IRE-1α. […] This splicing event is used to measure IRE-1α activity on XBP-1 mRNA in cells and tissues.
Briefly, compounds are incubated in the presence or absence of an ER stress agent (e.g., DTT), and the ratio of XBP-1u (unspliced) to XBP-1s (spliced) is quantified by RT-PCR. The ED50 is determined as the 50% XBP-1s to total XPB-1 levels.

Usually EC50 stands for the concentration at which the effect is half-maximal. Read a high EC50 as weaker potency.

Chain of IRE-1α (O75460 19-977): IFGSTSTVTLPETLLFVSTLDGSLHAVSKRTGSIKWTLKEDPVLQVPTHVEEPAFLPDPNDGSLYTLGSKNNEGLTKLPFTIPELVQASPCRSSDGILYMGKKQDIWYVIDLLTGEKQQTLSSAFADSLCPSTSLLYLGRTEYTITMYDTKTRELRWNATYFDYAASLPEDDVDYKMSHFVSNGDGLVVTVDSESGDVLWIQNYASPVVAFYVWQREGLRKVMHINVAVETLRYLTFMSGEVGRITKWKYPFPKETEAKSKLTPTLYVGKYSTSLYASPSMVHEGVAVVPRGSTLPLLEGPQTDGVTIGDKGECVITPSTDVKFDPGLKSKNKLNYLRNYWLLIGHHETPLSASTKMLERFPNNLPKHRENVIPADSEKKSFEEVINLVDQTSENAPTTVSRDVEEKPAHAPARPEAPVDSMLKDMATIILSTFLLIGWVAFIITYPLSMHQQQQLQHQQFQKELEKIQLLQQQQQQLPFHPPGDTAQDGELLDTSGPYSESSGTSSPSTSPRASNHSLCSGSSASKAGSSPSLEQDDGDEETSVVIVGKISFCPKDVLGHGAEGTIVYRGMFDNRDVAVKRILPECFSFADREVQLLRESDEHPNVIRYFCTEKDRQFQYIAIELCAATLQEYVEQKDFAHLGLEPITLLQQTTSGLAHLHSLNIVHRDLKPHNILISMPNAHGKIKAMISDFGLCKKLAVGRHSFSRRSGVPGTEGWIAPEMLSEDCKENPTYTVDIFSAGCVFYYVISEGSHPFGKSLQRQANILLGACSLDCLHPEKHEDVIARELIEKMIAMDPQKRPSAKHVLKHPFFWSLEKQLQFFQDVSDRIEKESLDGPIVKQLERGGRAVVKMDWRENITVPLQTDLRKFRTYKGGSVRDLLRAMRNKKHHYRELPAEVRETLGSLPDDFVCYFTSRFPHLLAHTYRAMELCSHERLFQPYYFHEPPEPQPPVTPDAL

As for `COCCOc1cc2c(C)c(CC(=O)N3CCN(C)CC3)c(=O)oc2c(C=O)c1O` [Example 189], the EC50 is less than 10 µM.
For `COc1cc2c(CN(C)C)c(C)c(=O)oc2c(C=O)c1O` [Example 133], the EC50 is less than 10 µM.
The result for `COCCNC(=O)c1ccc(-c2c(C)c3cc(Cl)c(O)c(C=O)c3oc2=O)cc1` [Example 150] reads greater than 10 µM.
`COCCNC(=O)CCc1c(C)c2c(OCCOC)cc(O)c(C=O)c2oc1=O` [Example 152] yielded an EC50 of less than 10 µM.
`Cc1c(/C=C/C(=O)N2CCN(C)CC2)c(=O)oc2c(C=O)c(O)ccc12` [Example 112] gave an EC50 of less than 10 µM.
As to `COCCNC(=O)CCc1c(C)c2cc(OC)c(O)c(C=O)c2oc1=O` [Example 171], the EC50 was less than 10 µM.
The compound `COCCNC(=O)CCc1c(C)oc2c(C=O)c(O)ccc2c1=O` [Example 215] showed an EC50 of less than 10 µM.
The compound `Cc1oc2c(C=O)c(O)ccc2c(=O)c1CCC(=O)N1CCN(C)CC1` [Example 88] registered an EC50 greater than 10 µM.
In turn, `COc1cc2c(=O)c(CCC(=O)NCCN(C)C)c(C)oc2c(C=O)c1O` [Example 214] gave an EC50 greater than 10 µM.
With `CCOC(=O)c1sc(-c2cc3ccc(O)c(C=O)c3oc2=O)nc1C` [Example 68], the EC50 was less than 10 µM.
The value for `COCCOc1cc(O)c(C=O)c2oc(=O)cc(C)c12` [Example 121] was less than 10 µM.
The result for `CN1CCN(C(=O)c2cc3c(C=O)c(O)ccc3[nH]2)CC1` [Example 275] reads greater than 10 µM; that for `CN(C)CCNC(=O)c1cc2c(C=O)c(O)ccc2[nH]1` [Example 278], greater than 10 µM.
In the case of `CCOC(=O)c1cnc(-c2cc3ccc(O)c(C=O)c3oc2=O)s1` [Example 106], the EC50 was less than 10 µM.
As to `O=Cc1c(O)ccc2sc(C(=O)NCCN3CCOCC3)cc12` [Example 262], the EC50 was less than 10 µM.
The value for `CCNC(=O)Cc1c(C)c2cc(OC)c(O)c(C=O)c2oc1=O` [Example 169] was less than 10 µM; that for `Cc1c(C)c2cc(OCCN3CCOCC3)c(O)c(C=O)c2oc1=O` [Example 203] was less than 10 µM.
As for `Cc1c(CCC(=O)NCCN2CCOCC2)c(=O)oc2c(C=O)c(O)ccc12` [Example 201], the EC50 was less than 10 µM.
The value for `CN1CCN(C(=O)CCc2nc3c(C=O)c(O)ccc3o2)CC1` [Example 251] was greater than 10 µM.
`COc1cc2c3c(c(=O)oc2c(C=O)c1O)CCC3` [Example 198] yielded an EC50 of less than 10 µM.
Consider `Cc1c(-c2ccc(C(=O)N(C)C)cc2)c(=O)oc2c(C=O)c(O)ccc12` [Example 17], for which the EC50 is less than 10 µM.
Take `COCCOc1cc(O)c(C=O)c2oc(=O)c(CC(=O)NCCN(C)C)c(C)c12` [Example 164]: the EC50 was greater than 10 µM.
The result for `O=Cc1c(O)ccc2nc(-c3ccc(C(=O)NCCN4CCOCC4)cc3)ccc12` [Example 45] reads less than 10 µM; that for `COCc1c(C)c(=O)oc2c(C=O)c(O)ccc12` [Example 137], less than 10 µM.
The value for `Cc1nc(-c2cc3ccc(O)c(C=O)c3oc2=O)sc1C(=O)NCCN1CCOCC1` [Example 109] was less than 10 µM; that for `COCCNC(=O)CCc1nc2ccc(O)c(C=O)c2n1C` [Example 237] was greater than 10 µM; that for `COCCOc1cc2c(C)c(CC(=O)NCCN3CCOCC3)c(=O)oc2c(C=O)c1O` [Example 187] was less than 10 µM.
As for `CCNC(=O)CCc1nc2c(C=O)c(O)ccc2n1C` [Example 230], the EC50 was greater than 10 µM.
`O=Cc1c(O)ccc2cc(C(=O)O)c(=O)oc12` [Example 8] showed an EC50 greater than 10 µM.
`COc1cc(O)c(C=O)c2oc(=O)c(CC(=O)N3CCOCC3)c(C)c12` [Example 177] yielded an EC50 of less than 10 µM.
The result for `O=Cc1c(O)ccc2[nH]c(CCC(=O)N3CCOCC3)nc12` [Example 232] reads greater than 10 µM; that for `COc1cc(O)c(C=O)c2oc(=O)c(CCC(=O)N3CCN(C)CC3)c(C)c12` [Example 193], less than 10 µM.
Consider `Cc1c(CC(=O)N2CCN(C)CC2)c(=O)oc2c(C=O)c(O)ccc12` [Example 130], for which the EC50 was less than 10 µM.
`Cc1nc(N2CCc3c(ccc(O)c3C=O)C2)sc1C(=O)NC1CCN(C)CC1` [Example 36] had an EC50 greater than 10 µM.
`COCCNC(=O)CCc1c(C)c2c(OC)cc(O)c(C=O)c2oc1=O` [Example 194] registered an EC50 of less than 10 µM.
As for `CN1CCC(NC(=O)CCc2nc3c(C=O)c(O)ccc3[nH]2)CC1` [Example 233], the EC50 is less than 10 µM.
`COCCNC(=O)c1cc2c(C=O)c(O)ccc2o1` [Example 282] gave an EC50 greater than 10 µM.
Turning to `CCNC(=O)CCc1c(C)c2cc(OCCN3CCOCC3)c(O)c(C=O)c2oc1=O` [Example 204], the EC50 is greater than 10 µM.
Compound `Cc1c(-c2cccc(C(=O)NCCN3CCOCC3)c2)c(=O)oc2c(C=O)c(O)ccc12` [Example 11] gave an EC50 of less than 10 µM.
`COCOCCNC(=O)Cc1c(C)c2cc(OC)c(O)c(C=O)c2oc1=O` [Example 149]: the EC50 was less than 10 µM.
The value for `COCCOCCc1c(C)c2cc(OC)c(O)c(C=O)c2oc1=O` [Example 127] was less than 10 µM.
The result for `Cc1oc2c(C=O)c(O)ccc2c(=O)c1CCC(=O)NCCN(C)C` [Example 218] reads greater than 10 µM; that for `CCNC(=O)CCc1nc2c(C=O)c(O)ccc2o1` [Example 252], greater than 10 µM; that for `CCOC(=O)CCc1nc2c(C=O)c(O)ccc2o1` [Example 247], greater than 10 µM.
In the case of `COCCNC(=O)c1cc2c(C=O)c(O)ccc2[nH]1` [Example 273], the EC50 was greater than 10 µM.
With `CCc1cc2c(C)c(-c3ccc(C(=O)NCCN4CCOCC4)cc3)c(=O)oc2c(C=O)c1O` [Example 117], the EC50 is less than 10 µM.
Consider `COc1cc(O)c(C=O)c2oc(=O)c(CC(=O)NCCN3CCOCC3)c(C)c12` [Example 179], for which the EC50 is less than 10 µM.
For `COCCNC(=O)c1cc2c(C=O)c(O)ccc2s1` [Example 258], the EC50 was greater than 10 µM.
The result for `COc1cc2c(C(C)C)cc(=O)oc2c(C=O)c1O` [Example 146] reads less than 10 µM; that for `Cn1c(CCC(=O)NCCN2CCOCC2)nc2ccc(O)c(C=O)c21` [Example 238], greater than 10 µM.
In turn, `COCCNC(=O)CCc1c(C)c2cc(OCCN3CCOCC3)c(O)c(C=O)c2oc1=O` [Example 202] gave an EC50 greater than 10 µM.
Compound `Cc1nc(-c2c(C)c3ccc(O)c(C=O)c3oc2=O)sc1C(=O)N1CCN(C)CC1` [Example 110] gave an EC50 of less than 10 µM.
The result for `O=Cc1c(O)ccc2oc(C(=O)O)cc12` [Example 281] reads greater than 10 µM; that for `COc1cc2c(C)c(CCC(=O)N3CCN(C)CC3)c(=O)oc2c(C=O)c1O` [Example 173], less than 10 µM.
As to `COc1cc2c(C(F)(F)F)cc(=O)oc2c(C=O)c1O` [Example 197], the EC50 was less than 10 µM.
The compound `CCc1cc2c(C)c(-c3ccc(C(=O)NCCOC)cc3)c(=O)oc2c(C=O)c1O` [Example 118] displayed an EC50 of less than 10 µM.
`COCCNC(=O)CCc1cc2c(C=O)c(O)ccc2s1` [Example 266] gave an EC50 of less than 10 µM.
The result for `COc1cc(O)c(C=O)c2oc(=O)c(C)c(CN(C)C)c12` [Example 135] reads less than 10 µM.
